Reference: ChEMBL document CHEMBL1141547, “Investigations of the esterase, phosphatase, and sulfatase activities of the cytosolic mammalian carbonic anhydrase isoforms I, II, and XIII with 4-nitrophenyl esters as substrates” (Bioorg Med Chem Lett, 2008)

Key:
[1] = biological target: T1, Carbonic anhydrase 13 (Mus musculus, UniProt Q9D6N1); experiment: Inhibition of mouse carbonic anhydrase 13 assessed as 4-nitrophenyl acetate hydrolysis
[2] = biological target: T1, Carbonic anhydrase 13; experiment: Inhibition of mouse carbonic anhydrase 13 assessed as 4-nitrophenyl phosphate hydrolysis

T1 sequence (Q9D6N1 whole entry): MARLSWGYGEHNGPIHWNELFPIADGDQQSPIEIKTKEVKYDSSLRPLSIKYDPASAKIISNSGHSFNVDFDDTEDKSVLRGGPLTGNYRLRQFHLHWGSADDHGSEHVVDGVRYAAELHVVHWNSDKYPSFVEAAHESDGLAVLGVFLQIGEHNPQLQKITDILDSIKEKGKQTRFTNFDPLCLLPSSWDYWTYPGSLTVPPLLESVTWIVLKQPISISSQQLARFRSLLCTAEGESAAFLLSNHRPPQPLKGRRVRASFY

## CC(=O)Nc1nnc(S(N)(=O)=O)s1 [ACETAZOLAMIDE]
[1]
  IC50: 0.49 µM
[2]
  IC50: 1.05 µM
